The test system of assay [1] is TNF-α in RAW 264.7 cells. The assay is described as follows: LPS-induced TNF-α ELISA in RAW 264.7 cells. The assay is classed as cell-based, mouse. To be noted: 50 μg ml^−1; LPS 100 ng ml^−1 24 h; LPS alone 215.79. The protocol: The effect of Brevisan, Microsan and M-EPS-Au-NP on the release of proinflammatory cytokines, TNF-α and IL-6, was measured using ELISA kits (Biosource International, Camarillo, Calif., USA). In independent experiments, the RAW-264.7 cells were treated with different concentrations (1, 10, 50 and 100 μg ml^−1) of Brevisan, Microsan and M-EPS-Au-NP and then stimulated with 100 ng ml^−1 of LPS. The supernatants were harvested after 24 h and the concentrations of TNF-α and IL-6 was measured using an ELISA kit according to the manufacturer's instructions.

The test system of assay [2] is Micrococcus luteus MTCC 2470. The assay is described as follows: Microtiter broth dilution MIC. It counts as cell-based. The conditions noted are these: Micrococcus luteus MTCC 2470, 24 h, 35° C. Here is the method:
(§1) The antimicrobial activity of Microsan and M-EPS-Au-NP was determined using the microtiter broth dilution method [Kumar, C. G. and Mamidyala, S. K. (2011) Coll. Surf B: Biointerf. 84, 462-466]. Different bacterial pathogens (10^7 cfu ml^−1 cells) were inoculated in 100 μl of Muller-Hinton broth. Different concentrations of Microsan, M-EPS-Au-NP and Brevisan were added to each strain and incubated for 24 h at 35° C. After incubation, 40 μl of p-iodonitrotetrazolium (INT, Sigma) dye (0.02%, 20 mg INT dissolved in 100 ml of 40% dimethyl formamide was added to each well and incubated for 2 h. The reduction of p-iodonitrotetrazolium was spectroscopically measured at 450 nm using TRIAD multimode reader (Dynex Technologies, Inc., Chantilly, Va.) to determine the minimum inhibitory concentration (MIC) values. Commercially available surfactin (CAS 24730-31-2; Sigma-Aldrich) and laminarin (CAS No 9008-22-4; Sigma-Aldrich) used as positive controls were run in parallel for comparison. The MIC values of Microsan and M-EPS-Au-NP observed against the tested bacterial strains are shown in Table 3.
(In general: Broth dilution looks for growth in wells or tubes with falling amounts of substance.)

In assay [3] the test system is Bacillus subtilis MTCC 121. The assay is described as follows: Microtiter broth dilution MIC. It counts as cell-based. To be noted: Bacillus subtilis MTCC 121, 24 h, 35° C. Here is the method: as §1
In assay [4] the test system is Escherichia coli MTCC 739. The assay is described as follows: Microtiter broth dilution MIC. It counts as cell-based. The conditions noted are these: Escherichia coli MTCC 739, 24 h, 35° C. Here is the method: as §1
The test system of assay [5] is Staphylococcus aureus MTCC 96. The assay is described as follows: Microtiter broth dilution MIC. The assay is classed as cell-based. The conditions noted are these: Staphylococcus aureus MTCC 96, 24 h, 35° C. Here is the method: as §1
Assay [6] has as its system Klebsiella planticola MTCC 530. The assay is described as follows: Microtiter broth dilution MIC. The assay is classed as cell-based. The conditions noted are these: Klebsiella planticola MTCC 530, 24 h, 35° C. The protocol:
as §1

The subject of assay [7] is Pseudomonas aeruginosa MTCC 2453. The assay is described as follows: Microtiter broth dilution MIC. The assay is classed as cell-based. To be noted: Pseudomonas aeruginosa MTCC 2453, 24 h, 35° C. Here is the method: as §1
Assay [8] deals with Staphylococcus aureus MLS16 MTCC 2940. The assay is described as follows: Microtiter broth dilution MIC. It counts as cell-based. The conditions noted are these: Staphylococcus aureus MLS16 MTCC 2940, 24 h, 35° C. Here is the method:
as §1

Assay [9] concerns C3 complement component in RAW 264.7 macrophages. The assay is described as follows: LPS-induced C3 complement component production ELISA in RAW 264.7 macrophages. To be noted: 1, 10, 20 and 50 μg/ml; LPS 100 ng ml^−1 24 h. The assay is classed as cell-based, mouse. The protocol:
The effect of Brevisan, Microsan and M-EPS-Au-NP on C3 complement component was measured using ELISA kits (Antibodies, Atlanta, USA). RAW 264.7 cells were treated with Brevisan, Microsan and M-EPS-Au-NP at 1, 10, 20 and 50 μg/ml, respectively, and then stimulated with 100 ng ml^−1 of LPS. After incubating for 24 h, 50 μl of supernatant was collected and added to each well in an antibody coated 96-well plate. After I h, the wells were washed with PBS and incubated with 100 μl of horse radish peroxidase (HRP)-conjugate for 1 h at 37° C. and then incubated with 50 μl of O-phenylenediamine (0.2% w/v in 0.017 M citrate phosphate buffer, pH 6) and 50 μl of 0.015% hydrogen peroxide for 15 min and the reaction was stopped by adding 50 μl of 12.5% sulphuric acid and the optical density was measured at 450 nm using Biotek EIA Reader (Biotek Instruments, Inc., VT, USA). The results shown are the average of three independent experiments. Further, the hemolytic activity of the secreted C3 was measured as described earlier [Gasque, P., Julen, N., Ischenko, A. M., Picot, C., Mauger, C., Chauzy, C., Ripoche, J. and Fontaine, M. (1992) J. Immunol. 149, 1381-1389]. […] Then 1.5 ml of PBS was added, centrifuged at 10,000 rpm for 5 min and the hemoglobin released present in the supernatant was quantified by measuring the absorbance at 415 nm. […]

One substance from patent publication US10106627B2, “Process for the preparation of polymeric biosurfactants” (priority 2014, dated 2018) can be followed below.

“β-D-glucuronyl-(1-2)-D-mannosyl-(1-4)-D-glucose [Microsan]”: the “TNF-α production after treatment” value in assay [1] was found to be 98.88 µg/mL. Further, the “Minimum inhibitory concentration (MIC)” value in assay [2] is more than 300 µg/mL; in assay [3] it was 4.68 µg/mL; in [4], more than 300 µg/mL; in assay [5] it was 18.75 µg/mL; in assay [6] it was 9.37 µg/mL; in [7] it was more than 300 µg/mL. In addition, the “Minimum inhibitory concentration (MIC)” value in assay [8] came out at 4.68 µg/mL. Further, the “inhibition of C3 complement component production” value in [9] is “did not inhibit”.
